Where a name gives a salt, the structure may show the parent alone. Read-outs that look alike come from different tables or passages of the source.
Key:
[1] = test system: adjuvant arthritis; assay: Adjuvant arthritis (therapy) test; format: in vivo, Lewis strain rats; conditions: foot volume on the day after final administration
Description: Experiment 2 [Adjuvant arthritis (therapy) test]
An adjuvant arthritis (therapy) test was carried out according to the method of Winder et al [Arthritis Rheum., vol. 12, page 472 (1969)].
Seven Lewis strain rats (for each group) were administered subcutaneously 0.7% Mycobacterium tuberculosis suspended in liquid paraffin into the left hind foot pad to induce adjuvant arthritis. 15 to 18 Days after the administration of adjuvant, rats with fully developed arthritis were administered orally with test drugs [the compound (a), (b), (i), (j), (k) and (m) of the present invention]and the control drug (indomethacin), each suspended in 5% aqueous gum arabic solution in an amount of 1 ml per 100 g of body weight once a day for 4 days.
On the day after the final administration, the volume of the foot was determined, and the edema inhibition rate (%) was calculated for the therapeutical effect. Doses of the test drugs were each 0.5 mg/kg, and dose of the control drug (indomethacin) was 1.0 mg/kg.

[2] = test system: carrageenin foot edema; assay: Carrageenin foot edema test; format: in vivo, Wister strain rats; conditions: for inhibition in vivo at 1 mg/kg / inhibition in vivo at 0.5 mg/kg: Rattus norvegicus, po, 3 h, read-out: Edema Inhibition rate; for inhibition in vivo at 0.5 mg/kg: *: dose of 0.5 mg/kg, orally
Description: Experiment 1 [Carrageenin foot edema test]
A carrageenin foot edema test was carried out according to the method of Winter et al [Proc. Soc. Exp. Biol. Med., vol. 111, page 544 (1962)].
Six Wister strain rats (for each group) were administered orally with the test drugs [the compounds (a) to (n) of the present invention] and the control drug (indomethacin), each suspended in 5% aqueous gum arabic solution in an amount of 1 ml per 100 g of body weight. An hour later, 0.1 ml of 1% carrageenin was administered subcutaneously into the left hind foot pad. Three hours after the administration of carrageenin, the volume of the foot was determined, and the edema inhibition rate (%) was calculated for the anti-inflammatory effect.
Doses of the test drugs (a) to (l) and the control drug (indomethacin) were each 1 mg/kg, and doses of test drugs (m) and (n) were each 0.5 mg/kg.

[3] = test system: adjuvant arthritis pain (squeaking response); assay: Adjuvant arthritis (pain) test; format: in vivo, Lewis strain rats; conditions: squeaking response over 5 hours after oral administration
[4] = test drugs 0.5 mg/kg orally once a day for 4 days
[5] = 1 mg/kg orally, 1 hour before 1% carrageenin, foot volume 3 hours after carrageenin
[6] = 1 hour before 1% carrageenin, foot volume 3 hours after carrageenin

Q: For `COc1ccc2c(c1)c(CC(=O)O)c(C)n2C(=O)c1ccc(Cl)cc1` [indomethacin, reference compound], which “Edema Inhibition rate” value ([1]; control drug 1.0 mg/kg orally once a day for 4 days) is on record?
A: The value was 39.5%.

Q: And the inhibition in vivo at 1 mg/kg [2]?
A: Its inhibition in vivo at 1 mg/kg is 21.4%.

Q: Which results are given for `CNCC(=O)Nc1cc(NS(C)(=O)=O)c(Oc2ccccc2)cc1[N+](=O)[O-]` [Example 20, N-(5-methylaminoacetylamino-4-nitro-2-phenoxyphenyl)methanesulfonamide]?
A: Edema Inhibition rate [1, 4]: 53.0%; inhibition in vivo at 1 mg/kg [2, 5]: 41.8%

Q: With `CS(=O)(=O)Nc1ccc([N+](=O)[O-])cc1Oc1ccccc1` [Control drug, N-(4-nitro-2-phenoxyphenyl)methanesulfonamide, reference compound] as the molecule, how does the Inhibition rate ([3]; control drug, dose not separately stated) read?
A: Its Inhibition rate is 19.4%.

Q: How did the inhibition in vivo at 0.5 mg/kg [2, 6] turn out when `CS(=O)(=O)Nc1cc(NC(=O)CN)c([N+](=O)[O-])cc1Oc1ccccc1` [Example 25, N-(5-aminoacetylamino-4-nitro-2-phenoxyphenyl)methanesulfonamide hydrochloride] was run?
A: Its inhibition in vivo at 0.5 mg/kg is 27.9%.

Q: For `CS(=O)(=O)Nc1cc(NC(=O)CNC2CC2)c([N+](=O)[O-])cc1Oc1ccccc1` [Example 5], which inhibition in vivo at 1 mg/kg [2, 5] is on record?
A: The inhibition in vivo at 1 mg/kg was 31.4%.

Q: For “N-[2-Cyclohexyloxy-5-(n-propylaminoacetylamino)phenyl]methanesulfonamide [Example 18]”, which “Edema Inhibition rate” value [2, 5] is on record?
A: The value was 36.0%.

Q: With `CCCNCC(=O)Nc1cc(NS(C)(=O)=O)c(Oc2ccccc2)cc1[N+](=O)[O-]` [Example 2, N-[4-nitro-5-(n-propylaminoacetylamino)-2-phenoxyphenyl]methanesulfonamide] as the molecule, how does the Inhibition rate ([3]; test drugs each 1.0 mg/kg, listed as b) read?
A: Its Inhibition rate is 47.5%.

Q: What about the “Edema Inhibition rate” value ([1]; test drugs 0.5 mg/kg orally once a day for 4 days, listed as b) of the same molecule?
A: Its value is 54.4%.

Q: And the inhibition in vivo at 1 mg/kg [2, 5]?
A: Its inhibition in vivo at 1 mg/kg is 30.2%.

Q: How did the inhibition in vivo at 1 mg/kg [2, 5] turn out when `CS(=O)(=O)Nc1cc(NC(=O)CNC2CCCC2)c([N+](=O)[O-])cc1Oc1ccccc1` [Example 7] was run?
A: The inhibition in vivo at 1 mg/kg was 27.8%.

Q: For `CCCCNCC(=O)Nc1cc(NS(C)(=O)=O)c(Oc2ccccc2)cc1[N+](=O)[O-]` [Example 1, N-[5-(n-butylaminoacetylamino)4-nitro-2-phenoxyphenyl]methanesulfonamide], which Inhibition rate ([3]; test drugs each 1.0 mg/kg) is on record?
A: Its Inhibition rate is 50.6%.

Q: What about the “Edema Inhibition rate” value [1, 4] of the same molecule?
A: Its value is 61.1%.

Q: What about the inhibition in vivo at 1 mg/kg [2, 5] of the same molecule?
A: The inhibition in vivo at 1 mg/kg was 34.6%.

Q: Which inhibition in vivo at 1 mg/kg [2, 5] does the source give for `C=CCNCC(=O)Nc1cc(NS(C)(=O)=O)c(Oc2ccccc2)cc1[N+](=O)[O-]` [Example 9] here?
A: The inhibition in vivo at 1 mg/kg was 31.9%.

Q: For `CS(=O)(=O)Nc1cc(NC(=O)CNC2CCCCC2)c([N+](=O)[O-])cc1Oc1ccccc1` [Example 8], which inhibition in vivo at 1 mg/kg [2, 5] is on record?
A: The inhibition in vivo at 1 mg/kg was 32.7%.

Q: How did the “Edema Inhibition rate” value [2, 5] turn out when `CCCCNCC(=O)Nc1cc(NS(C)(=O)=O)c(Oc2ccccc2)cc1[N+](=O)[O-].Cl` [Example 23, N-[5-(n-butylaminoacetylamino)-4-nitro-2-phenoxyphenyl]methanesulfonamide hydrochloride] was run?
A: The value was 25.1%.

Q: `CS(=O)(=O)Nc1cc(NC(=O)CNCc2ccccc2)c([N+](=O)[O-])cc1Oc1ccccc1` [Example 10] was tested. Which inhibition in vivo at 1 mg/kg [2, 5] did it give?
A: Its inhibition in vivo at 1 mg/kg is 35.8%.

Q: `CS(=O)(=O)Nc1cc(NC(=O)CN)c([N+](=O)[O-])cc1Oc1ccccc1` [Example 22, N-(5-aminoacetylamino-4-nitro-2-phenoxyphenyl)methanesulfonamide] was tested. Which Inhibition rate ([3]; test drugs each 1.0 mg/kg) did it give?
A: The Inhibition rate was 41.9%.

Q: And the “Edema Inhibition rate” value [1, 4]?
A: The value was 52.9%.

Q: What about the inhibition in vivo at 1 mg/kg [2, 5] of the same molecule?
A: The inhibition in vivo at 1 mg/kg was 46.6%.

Q: Which results are given for `CCNCC(=O)Nc1cc(NS(C)(=O)=O)c(Oc2ccccc2)cc1[N+](=O)[O-]` [Example 21, N-(5-ethylaminoacetylamino-4-nitro-2-phenoxyphenyl)methanesulfonamide]?
A: Edema Inhibition rate [1, 4]: 54.2%; inhibition in vivo at 1 mg/kg [2, 5]: 39.9%

Q: For `CCCNCC(=O)Nc1cc(NS(C)(=O)=O)c(Oc2ccccc2)cc1[N+](=O)[O-]` [Example 24, N-[4-nitro-5-(n-propylaminoacetylamino)-2-phenoxyphenyl]methanesulfonamidehydrochloride], which Inhibition rate ([3]; test drugs each 1.0 mg/kg, listed as m) is on record?
A: Its Inhibition rate is 52.1%.

Q: What about the “Edema Inhibition rate” value ([1]; test drugs 0.5 mg/kg orally once a day for 4 days, listed as m) of the same molecule?
A: Its value is 53.0%.

Q: And the inhibition in vivo at 0.5 mg/kg [2, 6]?
A: The inhibition in vivo at 0.5 mg/kg was 22.4%.

Reference: patent publication US5521311A, “5-aminoacetylaminosulfonanilide compounds” (Taisho Pharmaceutical Co., Ltd., priority 1993, dated 1996)
